Data reported in paper PMC6522510 (Nature Communications, 2019).

How the values were obtained:
Set-up in all cases: species or system AML cell lines (8); Primary HTS, single concentration about 10 uM, Cell Titer Glo viability; log10 luminescence, per cent inhibition relative to cycloheximide control
Settings in all cases: 72 h, relative to cycloheximide control, log10 luminescence; inhibitor
[1] = test system: CHRF288-11
[2] = test system: CMK
[3] = test system: CMS
[4] = test system: M07e
[5] = test system: ML-2
[6] = test system: MOLM-13
[7] = test system: MV4-11
[8] = test system: U937

SMILES | CHRF288-11 %inh [1] [%] | CMK %inh [2] [%] | CMS %inh [3] [%] | M07e %inh [4] [%] | ML-2 %inh [5] [%] | MOLM-13 %inh [6] [%] | MV4-11 %inh [7] [%] | U937 %inh [8] [%]
Cn1cc(C2=C(c3cn(CCCCN)c4ccccc34)C(=O)NC2=O)c2ccccc21 [SJ000580952-1] | 13.76 | 13.68 | 1.981 | -0.5312 | 4.061 | 4.295 | 8.937 | 11.79
CC(=O)N[C@@H](Cc1ccc(OP(=O)(O)O)cc1)C(=O)N[C@H]1CCC(=O)N2CCC[C@@H](C(=O)NC3CCc4ccccc43)N2C1=O (stereo partly drawn) [SJ000580953-1] | 3.338 | 1.012 | -2.328 | -2.209 | 0.02578 | 0.9252 | -1.841 | -1.364
O=C1NC(=NCCc2ccc(F)cc2)S/C1=C\c1ccc2ncccc2c1 [SJ000580954-1] | -1.783 | 4.249 | -3.568 | -2.647 | 0.5359 | 4.197 | -0.3593 | 1.346
CC(C)c1[nH]nc2c1N=C(c1ccccc1Cl)c1cc([N+](=O)[O-])ccc1N2 [SJ000580955-1] | 1.018 | 2.501 | -2.316 | 0.02064 | -0.2118 | 0.5223 | 1.567 | -1.286
O=C1NC(=NCCc2cccc(Cl)c2)S/C1=C\c1ccc2ncccc2c1 [SJ000580956-1] | 2.333 | 32.59 | 5.008 | 0.9407 | 10.56 | 9.124 | 2.972 | 20
C[C@@H](Cn1ncnn1)Nc1ncc2cc(Oc3ccc(F)cc3F)c(=O)n(C)c2n1 [SJ000580957-1] | 0.5625 | 6.727 | 0.2461 | 0.2176 | 0.7836 | 1.122 | -1.139 | 0.5561
Cn1c(=O)c(Cc2ccccc2F)cc2cnc(NC3CCOCC3)nc21 [SJ000580958-1] | 0.1529 | 5.964 | 0.1397 | 0.7689 | 0.5571 | 5.832 | 6.415 | 8.088
O=C1NC(=Nc2ccccc2)S/C1=C\c1ccc2ncccc2c1 [SJ000580960-1] | -1.26 | 5.474 | -0.1285 | -2.396 | 0.4587 | 1.819 | 2.663 | 2.19
O=c1c(Oc2ccc(F)cc2F)cc2cnc(NC3CCOCC3)nc2n1C1CCS(=O)(=O)CC1 [SJ000580961-1] | -4.195 | 4.971 | -0.4155 | -1.798 | 0.6064 | 0.9477 | 0.879 | 4.388
O=c1c(Oc2ccc(F)cc2F)cc2cnc(NC3CCOCC3)nc2n1CCCO [SJ000580962-1] | 3.259 | 6.717 | 2.142 | -0.6973 | 1.08 | 0.8881 | 3.176 | 2.637
Cn1cc(C2=C(c3c4n(c5ccccc35)CCCC4)C(=O)NC2=O)c2ccccc21 [SJ000580963-1] | 3.717 | 59.12 | 9.345 | 29.09 | 20.63 | 2.901 | 8.237 | 27.07
Cn1c(=O)c(Oc2ccc(F)cc2F)cc2cnc(NCCS(C)(=O)=O)nc21 [SJ000580964-1] | -0.5727 | 2.942 | -1.101 | -0.966 | -0.4027 | 0.541 | 3.561 | 5.046
Cn1cc(C2=C(c3cccc(Br)c3)C(=O)NC2=O)c2ccccc21 [SJ000580965-1] | 0.5807 | 8.568 | 0.1878 | 3.983 | -0.4526 | 4.067 | 8.448 | 10.11
Cc1c(C2=C(c3cn(C)c4ccccc34)C(=O)NC2=O)c2ccccc2n1C [SJ000580966-1] | 4.622 | 42.24 | -2.63 | 4.858 | 15.84 | 2.992 | -0.1129 | 14.47
Cn1cc(C2=C(c3cn(C)c4ccc(N)cc34)C(=O)NC2=O)c2ccccc21 [SJ000580967-1] | 11.3 | 43.44 | 2.341 | 2.999 | 0.6002 | 8.368 | 0.6883 | 7.089
C[C@H](O)CNc1cc(-c2[nH]c3cccnc3c2-c2ccc(F)cc2)ccn1 [SJ000580968-1] | -0.7944 | 8.696 | -1.462 | -0.9304 | -2.119 | 2.412 | 1.217 | 2.723
O=C1NC(=NCCc2ccc(Cl)cc2)S/C1=C\c1ccc2ncccc2c1 [SJ000580969-1] | 2.273 | 0.9453 | 0.8596 | -1.208 | -0.5014 | 1.832 | 1.31 | -0.9947
Cn1cc(C2=C(c3cn(C)c4cc(C(=O)O)ccc34)C(=O)NC2=O)c2ccccc21 [SJ000580970-1] | 12.22 | 35.03 | -3.422 | -3.399 | -3.521 | 4.437 | 2.908 | -0.7361
Cn1c(=O)c(Oc2ccc(F)cc2F)cc2cnc(NC(C)(C)CO)nc21 [SJ000580971-1] | 4.115 | 4.061 | -1.762 | 0.06396 | -1.151 | 3.693 | 3.201 | 1.382
Cn1c(=O)c(Oc2ccc(F)cc2)cc2cnc(NC3CCOCC3)nc21 [SJ000580972-1] | 0.05441 | 4.681 | 3.35 | 1.712 | -0.6256 | -0.3408 | -1.036 | 2.684
Nc1c(C(=O)c2cccc(C#CCN3CCOCC3)c2)cnn1-c1ccc(F)cc1 [SJ000580973-1] | 3.718 | 37.5 | 0.1973 | 5.913 | 0.4746 | 2.598 | 1.084 | 6.28
O=C1NC(=NCCc2ccc(Br)cc2)S/C1=C\c1ccc2ncccc2c1 [SJ000580974-1] | -1.536 | 0.3303 | -2.579 | -0.6831 | -0.9884 | 0.9588 | 2.317 | -2.102
CS(=O)(=O)N1CCC(n2c(=O)c(Oc3ccc(F)cc3F)cc3cnc(NC4CCOCC4)nc32)CC1 [SJ000580975-1] | -0.8918 | 5.472 | -1.205 | 0.9741 | -0.9846 | 0.4331 | 2.449 | 0.9443
COc1ccc(C2=C(c3cn(C)c4ccccc34)C(=O)NC2=O)cc1 [SJ000580976-1] | 0.9018 | 12.52 | -2.297 | 2.491 | -0.4189 | 0.836 | 1.945 | 2.922
